{"source": "patent US8268278B2", "about": "“Phosphorus-calcium-strontium compound and uses thereof in endodontic cements” (Centre National de la Recherche Scientifique, priority 2006, dated 2012)", "tested_on": "polymicrobial inoculum taken from dental plaque", "assay": "Inhibition of growth of a polymicrobial inoculum, diffusion in solid agar medium", "assay_type": "cell-based", "conditions": "freshly prepared samples", "text": "The activity of these two cements was verified on freshly prepared samples of cement and samples prepared 13 days previously."}
{"smiles": "[Ca+2].[OH-].[OH-]", "note": "[Ca(OH)2, calcium hydroxide]", "values": [{"measurement": "RIZ (relative inhibition zone, compared with freshly prepared pure calcium hydroxide)", "value": 1}]}
